Structures are written as SMILES. Structures can show the parent of a compound that is named as a salt.

We go through seven compounds from US4146624A, “Method of treating viruses with bis-basic ketones of dibenzofuran” (Richardson-Merrell Inc., priority 1970, dated 1979).

The experiment has as its system Encephalomyocarditis. Briefly: in vivo antiviral study, mice challenged subcutaneously with encephalomyocarditis virus. The conditions noted are these: observation 9 days. As to the method: Examples 25 to 36 illustrate in vivo antiviral studies with compounds, also referred to as active ingredients, of this invention. In each of the examples the compounds were antivirally active. […] The dosage levels of the compounds used in the examples were within the range of 10 to 250 mg. per kg. of animal body weight for each time the compound was administered.
Table A lists the active ingredient which was administered in each of the examples. Although it is believed that the headings in the examples are self-explanatory, some of the headings are explained as follows. The "challenge," that is, the inoculation with a virus used is generally fatal to all the untreated, that is, control animals in the experiment. "Time of death" refers to the average time of death for the untreated animals. The "Treatment" was prophylactic or therapeutic or both. The term "volume" refers to the volume of composition administered per dose which contained the active ingredient dissolved in sterile water which also contained 0.15% of hydroxyethylcellulose.

[1] abbreviates: Proph. & Therap., 50 mg/kg subcutaneous, 28,22,2 hrs. pre- and 2 hrs. post-challenge, challenge 10 LD50.
[2] abbreviates: prophylactic, 250 mg/kg oral, 22 hrs. pre-challenge, challenge 6 LD50.

Regarding `O=C(CCCN1CCOCC1)c1ccc2oc3ccc(C(=O)CCCN4CCOCC4)cc3c2c1` [Example 30, 2,8-bis-(4-morpholinobutyryl)dibenzofuran], under setting [1], the antiviral activity entry is recorded as “Yes”.
Turning to `CC1CCN(CCCC(=O)c2ccc3oc4ccc(C(=O)CCCN5CCC(C)CC5)cc4c3c2)CC1` [Example 27, 2,8-bis-[4-(4-methylpiperidino)butyryl]dibenzofuran], the antiviral activity entry (Proph. & Therap., 10 mg/kg subcutaneous, 28,22,2 hrs. pre- and 2 hrs. post-challenge, challenge 6 LD50) is “Yes”; the antiviral activity result under setting [2] was “Yes”.
As to `O=C(CCCN1CCC(Cc2ccccc2)CC1)c1ccc2oc3ccc(C(=O)CCCN4CCC(Cc5ccccc5)CC4)cc3c2c1` [Example 29, 2,8-bis-[4-(4-benzylpiperidino)butyryl]dibenzofuran], the antiviral activity result (Proph. & Therap., 10 mg/kg subcutaneous, 28,22,2 hrs. pre- and 2 hrs. post-challenge, challenge 18 LD50) is listed as “Yes”.
Consider `O=C(CCCN1CCCCC1)c1ccc2oc3ccc(C(=O)CCCN4CCCCC4)cc3c2c1` [Example 25, 2,8-bis-(4-piperidinobutyryl)dibenzofuran], for which the antiviral activity entry by setting is: (prophylactic, 50 mg/kg subcutaneous, 28,22,2 hrs. pre-challenge, challenge 6 LD50) “Yes”; under setting [2], “Yes”.
As for `CCN(CC)CC(=O)c1ccc2oc3ccc(C(=O)CN(CC)CC)cc3c2c1` [Example 33, 2,8-bis-[2-(diethylamino)acetyl]dibenzofuran dihydrochloride hemihydrate], the antiviral activity result reads like this: (Proph. & Therap., 50 mg/kg subcutaneous, 28,22,2 hrs. pre- and 2 hrs. post-challenge, challenge 12 LD50) “Yes”; (prophylactic, 250 mg/kg oral, 22 hrs. pre-challenge, challenge 12 LD50) “Yes”.
`CN(C)CC(=O)c1ccc2oc3ccc(C(=O)CN(C)C)cc3c2c1.Cl.Cl.O.O` [Example 35, 2,8-bis-[2-(dimethylamino)acetyl]dibenzofuran dihydrochloride dihydrate]: the antiviral activity entry (Proph. & Therap., 50 mg/kg oral, 28,22,2 hrs. pre- and 2 hrs. post-challenge, challenge 10 LD50) is given as “Yes”; the antiviral activity result under setting [1] is “Yes”.
In the case of `O=C(CN1CCCCC1)c1ccc2oc3ccc(C(=O)CN4CCCCC4)cc3c2c1` [Example 31, 2,8-bis-(piperidinoacetyl)dibenzofuran], the antiviral activity result is, setting by setting: (Proph. & Therap., 250 mg/kg subcutaneous, 28,22,2 hrs. pre- and 2 hrs. post-challenge, challenge 32 LD50) “Yes”; (prophylactic, 250 mg/kg oral, 22 hrs. pre-challenge, challenge 32 LD50) “Yes”.
